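Values below derive from 48-hour exposures of cells grown in 96-well plates, with endpoints linearly interpolated between the two concentrations bracketing the appropriate inhibition level. The concentration for 50% growth inhibition is given as GI50.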 Active and inactive are the calls of the source. Cut-off read from the data, not from the text of the source: active = GI50 up to about 1.1 µM and inactive = higher.
How the values were obtained:
Test in all cases: inhibition of tumour cell growth, NCI panel, 48 h
CAKI-1 = system: CAKI-1
NCI-H23 = system: NCI-H23
RXF 393 = system: RXF 393
PC-3 = system: PC-3
HCT-116 = system: HCT-116
MOLT-4 = system: MOLT-4
MCF7 = system: MCF7
LOX IMVI = system: LOX IMVI
IGROV-1 = system: IGROV-1
UACC-62 = system: UACC-62
SK-OV-3 = system: SK-OV-3
SK-MEL-5 = system: SK-MEL-5
HL-60 = system: HL-60
MDA-MB-231 = system: MDA-MB-231
K562 = system: K562
Hs-578T = system: Hs-578T
SF-268 = system: SF-268
HCT-15 = system: HCT-15
UO-31 = system: UO-31
SR = system: SR

| SMILES | GI50 (CAKI-1) | GI50 (NCI-H23) | GI50 (RXF 393) | GI50 (PC-3) | GI50 (HCT-116) | GI50 (MOLT-4) | GI50 (MCF7) | GI50 (LOX IMVI) | GI50 (IGROV-1) | GI50 (UACC-62) | GI50 (SK-OV-3) | GI50 (SK-MEL-5) | GI50 (HL-60) | GI50 (MDA-MB-231) | GI50 (K562) | GI50 (Hs-578T) | GI50 (SF-268) | GI50 (HCT-15) | GI50 (UO-31) | GI50 (SR) |
| --- | --- | --- | --- | --- | --- | --- | --- | --- | --- | --- | --- | --- | --- | --- | --- | --- | --- | --- | --- | --- |
| Cc1ccc(C)n1-c1ccccc1C1C=Cn2c3c1c(=O)c(OC(C)C)c(OC(C)C)c-3n[nH]c2=O (stereo unspecified) | 31.8 µM (inactive) | 53.8 µM (inactive) | 23 µM (inactive) | 10.3 µM (inactive) | 19.2 µM (inactive) | 6.62 µM (inactive) | 22.2 µM (inactive) | 25.9 µM (inactive) | 30.1 µM (inactive) | 39.4 µM (inactive) | > 100 µM (inactive) | 5.01 µM (inactive) | 5.45 µM (inactive) | 33.6 µM (inactive) | 12.2 µM (inactive) | 35.4 µM (inactive) | 59.2 µM (inactive) | 21.7 µM | 64.3 µM (inactive) |  |
| COc1ccc2c(c1O)[C@@]13CCCC=C1[C@@H](C2)[N+](C)(C)CC3 | > 100 µM (inactive) | > 100 µM (inactive) | > 100 µM (inactive) | > 100 µM (inactive) | > 100 µM (inactive) |  | > 100 µM (inactive) | > 100 µM (inactive) | > 100 µM (inactive) | > 100 µM (inactive) | > 100 µM (inactive) | 91.4 µM (inactive) | 56.4 µM (inactive) | > 100 µM (inactive) | 57.8 µM (inactive) | 77.3 µM (inactive) | > 100 µM (inactive) | > 100 µM | > 100 µM (inactive) |  |
| CCOC(=O)c1[nH]c2ccccc2c1C(=O)C[C@H](NC(=O)C(F)(F)F)C(=O)OC | > 100 µM (inactive) | > 100 µM (inactive) |  | > 100 µM (inactive) | > 100 µM (inactive) | > 100 µM (inactive) | > 100 µM (inactive) | > 100 µM (inactive) | > 100 µM (inactive) |  |  | > 100 µM (inactive) | > 100 µM (inactive) | > 100 µM (inactive) | > 100 µM (inactive) | > 100 µM (inactive) | > 100 µM (inactive) | > 100 µM | 75.3 µM (inactive) | > 100 µM (inactive) |
| C[C@H]1[C@H]2[C@H]3CC[C@@H]4[C@@]5(C)CC[C@H](O)C(C)(C)[C@@H]5CC[C@@]4(C)[C@]3(C)C[C@H](O)[C@@]2(C)C[C@H]2O[C@]21C | 25.1 µM (inactive) | 18.2 µM (inactive) | 16.7 µM (inactive) | 13.7 µM (inactive) | 16.1 µM (inactive) | 27.5 µM (inactive) | 16.5 µM (inactive) | 16.4 µM (inactive) | 27.4 µM (inactive) | 23.2 µM (inactive) | 14.7 µM (inactive) | 16.6 µM (inactive) | 44 µM (inactive) | 18 µM (inactive) |  | 25.2 µM (inactive) | 18 µM (inactive) | 20.1 µM |  |  |
| COc1ccc(CC2C(=O)NC(C)C(=O)N(C)C3C(=O)N(C)C(Cc4ccc(O)c(c4)Oc4ccc(cc4)C3O)C(=O)NC(C)C(=O)NC(C)C(=O)N2C)cc1.COc1ccc(CC2C(=O)NC(C)C(=O)N(C)C3Cc4ccc(cc4)Oc4cc(ccc4O)CC(C(=O)NC(C)C(=O)NC(C)C(=O)N2C)N(C)C3=O)cc1 (stereo unspecified) | 0.137 µM (active) | 0.00552 µM (active) |  | 0.00601 µM (active) | 0.00108 µM (active) | 0.01 µM (active) | 0.00215 µM (active) | 0.00237 µM (active) | 0.01 µM (active) | 0.00266 µM (active) | 0.0179 µM (active) | 0.0168 µM (active) | 0.01 µM (active) | 0.0115 µM (active) | 0.01 µM (active) | 0.01 µM (active) | 0.00316 µM (active) | 0.483 µM | 0.136 µM (active) | 0.01 µM (active) |
| Nc1c(OCC(=O)O)ccc2cc(S(=O)(=O)O)ccc12 | > 100 µM (inactive) | > 100 µM (inactive) | > 100 µM (inactive) | > 100 µM (inactive) | > 100 µM (inactive) |  | > 100 µM (inactive) | > 100 µM (inactive) | > 100 µM (inactive) | > 100 µM (inactive) | > 100 µM (inactive) | > 100 µM (inactive) | > 100 µM (inactive) | > 100 µM (inactive) | > 100 µM (inactive) | > 100 µM (inactive) | > 100 µM (inactive) | > 100 µM | > 100 µM (inactive) |  |
| O=C1N/C(=N/N=C/C(O)C(O)C(O)C(O)CO)N/C1=C\c1cccs1 (stereo unspecified) | > 100 µM (inactive) | > 100 µM (inactive) | > 100 µM (inactive) | > 100 µM (inactive) | > 100 µM (inactive) | > 100 µM (inactive) | > 100 µM (inactive) | > 100 µM (inactive) | > 100 µM (inactive) | > 100 µM (inactive) | > 100 µM (inactive) | > 100 µM (inactive) | > 100 µM (inactive) | > 100 µM (inactive) | > 100 µM (inactive) | > 100 µM (inactive) | > 100 µM (inactive) | > 100 µM |  |  |
| COc1cc(C2SC(=N)Nc3c2c(C)nn3C(=O)c2ccccc2O)ccc1O (stereo unspecified) | > 2.42 µM (inactive) | > 2.3 µM (inactive) | 1.52 µM (inactive) | > 4.03 µM (inactive) |  | > 2.28 µM (inactive) | > 2.01 µM (inactive) | 1.47 µM (inactive) | 1.61 µM (inactive) | 1.15 µM (inactive) | > 2.17 µM (inactive) | 2.75 µM (inactive) | > 2.32 µM (inactive) | > 3.98 µM (inactive) | 1.46 µM (inactive) | 0.461 µM (active) | > 3.05 µM (inactive) | > 2.31 µM | 9.31 µM (inactive) |  |
| O=c1c2ccccc2nc(Cc2nc(-c3ccc(Cl)cc3)cs2)n1-c1ccc(Cl)cc1 | > 100 µM (inactive) | 56.8 µM (inactive) | > 100 µM (inactive) | 48 µM (inactive) | 37.2 µM (inactive) | 30.9 µM (inactive) | 46.9 µM (inactive) | 50.2 µM (inactive) | 45.2 µM (inactive) | 5.78 µM (inactive) | > 100 µM (inactive) | 34.4 µM (inactive) | 66.2 µM (inactive) | > 100 µM (inactive) | 5.01 µM (inactive) | > 100 µM (inactive) | 62.4 µM (inactive) | 31.5 µM | > 100 µM (inactive) |  |
| COc1cc(/C=C2\C(=O)N(c3ccc(Cl)cc3)C(c3ccccc3)S2(=O)=O)cc(OC)c1OC (stereo unspecified) | 38.5 µM (inactive) | 6.4 µM (inactive) | 22.4 µM (inactive) | 22.8 µM (inactive) | 3.37 µM (inactive) | 26.9 µM (inactive) | 4.61 µM (inactive) | 4.55 µM (inactive) |  | 2.19 µM (inactive) | 14 µM (inactive) | 1.05 µM (active) | 5.04 µM (inactive) | > 69.3 µM (inactive) | 0.726 µM (active) | > 100 µM (inactive) | 31 µM (inactive) | 1.03 µM | 3.48 µM (inactive) |  |
| N#CC1C(=O)NC2=C(CCOc3c2ccc2ccccc32)C1c1ccc(F)cc1 (stereo unspecified) | 31.5 µM (inactive) | 23.4 µM (inactive) | 15 µM (inactive) | 19.3 µM (inactive) | 14 µM (inactive) | 37.6 µM (inactive) | 36.7 µM (inactive) |  | 17.3 µM (inactive) |  | 24.8 µM (inactive) | 21.5 µM (inactive) | > 100 µM (inactive) |  | > 100 µM (inactive) | 16.2 µM (inactive) | 22.4 µM (inactive) | 38.5 µM | 12.1 µM (inactive) |  |
| COC(=O)C(=CNC(N)=O)C(=O)OC | > 100 µM (inactive) | > 100 µM (inactive) |  | > 100 µM (inactive) | > 100 µM (inactive) | > 100 µM (inactive) | > 100 µM (inactive) | > 100 µM (inactive) | > 100 µM (inactive) | > 100 µM (inactive) |  | > 100 µM (inactive) |  |  | > 100 µM (inactive) | 63.4 µM (inactive) | > 100 µM (inactive) | > 100 µM | > 100 µM (inactive) | > 100 µM (inactive) |
| CC1(C)CC(=O)C(=CN2C(=O)CNC2=S)C(=O)C1 | > 100 µM (inactive) | > 100 µM (inactive) | 85.9 µM (inactive) | > 100 µM (inactive) | > 100 µM (inactive) | > 100 µM (inactive) | > 100 µM (inactive) |  | > 100 µM (inactive) | > 100 µM (inactive) | > 100 µM (inactive) | > 100 µM (inactive) | > 100 µM (inactive) | > 100 µM (inactive) |  | > 100 µM (inactive) | > 100 µM (inactive) | > 100 µM | > 100 µM (inactive) |  |
| CC1(C)CCC2=C(O1)/C(=N\Nc1ccccc1)c1ccccc1C2=O | 24 µM (inactive) | 34.8 µM (inactive) | 16.6 µM (inactive) | 24.1 µM (inactive) | 16.9 µM (inactive) | 34 µM (inactive) | 18.9 µM (inactive) | 22 µM (inactive) | 34.6 µM (inactive) | 34.6 µM (inactive) | 24.9 µM (inactive) | 32.1 µM (inactive) | 35.8 µM (inactive) | 25.4 µM (inactive) | 39.9 µM (inactive) | 35.6 µM (inactive) | 48.3 µM (inactive) | 29.6 µM | 17.8 µM (inactive) |  |
| C=C(C)C(=O)O[C@H]1CC2=CC(CC(C)=C[C@H]3OC(=O)C(=C)C13)OC2=O (stereo partly specified) | 17.2 µM (inactive) | 39.3 µM (inactive) |  | 23 µM (inactive) | 10.8 µM (inactive) | 19.8 µM (inactive) | 13.1 µM (inactive) | 21 µM (inactive) | 33 µM (inactive) | 17.4 µM (inactive) |  | 68.2 µM (inactive) | 3.65 µM (inactive) | 25.2 µM (inactive) | 7.74 µM (inactive) | 99.1 µM (inactive) | 20.6 µM (inactive) | 10.8 µM | > 10 µM (inactive) |  |
